According to patent US20260325655A1, “DECREASING THE INTRINSICALLY DISORDERED PROTEIN ALPHA-SYNUCLEIN’S LEVELS BY TARGETING ITS STRUCTURED MRNA WITH A RIBONUCLEASE TARGETING CHIMERA” (University of Florida Research Foundation, Incorporated, priority 2023, published 2026):
Like-named read-outs stand apart in the source and are kept apart here.

Experiments:
Format in all cases: cell-based, human
SH-SY5Y cells = assay: transcriptome-wide RNA-seq in SH-SY5Y cells; conditions: for inhibition at 2 µM: Homo sapiens, not statistically significant
Protocol: RNA-seq analysis. Total RNA was quantified using the Qubit 2.0 Fluorometer (Invitrogen) and an Agilent 2100 Bioanalyzer RNA nano chip. Samples with RIN>9.0 were proceeded to library preparation using NEBNext Ultra II Directional RNA Kit (Cat. #E7760, NEB) following manufacture's protocol. Briefly, 200 ng of total RNA was depleted of ribosomal RNA using the NEBNext rRNA Depletion Module. The product was chemically fragmented using NEBNext Magnesium RNA Fragmentation Module (E6150S, NEB) the at 94° C. for 15 min. First-strand synthesis was performed with random primers, and second strand was synthesized with dUTP in place of dTTP. After end repair and 3′ adenylation, the cDNA was ligated with adaptors and then treated with USER enzyme (Uracil-specific excision reagent). The product was PCR amplified with Illumina-barcoded primers to generate the cDNA libraries. The final libraries were analyzed on the bioanalyzer DNA chips, pooled in equimolar ratios, and loaded onto the NextSeq 500 v2.5 flow cell and sequenced with 2×40 bp paired-end chemistry. The raw data were aligned to the human genome using STAR.^11 Read counts were extracted using featureCounts,^12 and the differential gene analysis was performed using Deseq2.^13

SNCA mRNA [1] = assay: SNCA mRNA cleavage after siRNA knock-down of RNase L in SH-SY5Y cells
Protocol: (§1) RNA extraction and reverse transcription-quantitative polymerase chain reaction (RT-qPCR). Total RNA was extracted from cells using a Quick-RNA MiniPrep Kit (Zymo Research) per the manufacturer's protocol including DNase treatment. For each sample, 200 ng of RNA was reverse transcribed into cDNA by using a qScript cDNA Synthesis Kit (QuantaBio) according to the manufacturer's instructions. To assess the relative mRNA levels, RT-qPCR was performed in triplicate using SYBR Green PCR mater mix (Applied Biosystems) with a Quant Studio 5 Real-Time PCR system. The relative levels of mRNA were calculated by using the ΔΔCt method as previously described.^8
Transfection of siRNAs. The siRNAs were purchased from commercial sources as listed in General information. The α-synuclein siRNA (final concentration of 200 nM) or RNase L siRNA (final concentration of 50 nM) were transfected into SH-SY5Y cells (at ~60% confluency in 12-well plates) by using the Lipofectamine RNAiMax (Life technologies) per manufacturer's protocol.

TfR mRNA = TfR mRNA in SH-SY5Y cells by RT-qPCR
Protocol: as §1

ferritin = ferritin protein in SH-SY5Y cells by Western blot
Protocol: Western blotting. After 48 h, cells were gently washed with ice-cold 1× DPBS, and total protein was extracted with Mammalian Protein Extraction Reagent (M-PER, Thermo Scientific) per the manufacturer's protocol. After quantifying protein concentration by using BCA Protein Assay Kit (Pierce Biotechnology), ~30 μg of total protein for each sample was separated using a 10% SDS-polyacrylamide gel and transferred onto a PVDF membrane. The membrane was fixed with 0.4% paraformaldehyde (pH=7.0) for 30 min at room temperature^9 and then blocked with 5% (w/v) non-fat dry milk in 1× TBST (1× TBS containing 0.1% Tween-20) for 1 h at room temperature. […] After washing 10 min each with 1× TBST three times, immunocomplex signals of each protein were detected by using a SuperSignal West Pico Chemiluminescent Substrate (Pierce Biotechnology) according to the manufacturer's protocol. The memebrane was then stripped by using 1× Stripping Buffer (200 mM glycine, pH 2.2, 4 mM SDS, 1% (v/v) Tween 20) at room temperature for 15 min, followed by blocking with 5% (w/v) non-fat dry milk at room temperature for 1 h. β-actin was used to normalize the levels of all proteins, measured by incubating with a primary antibody for β-actin (1:5000, 3700S from Cell Signaling Technology) at 4° C. overnight. […]

SNCA mRNA [2] = assay: competition of Synucleozid-2.0 with Syn-RiboTAC in SH-SY5Y cells; conditions: Synucleozid-2.0 0.1-10 μM; Syn-RiboTAC constant 2 μM
Protocol: Syn-RiboTAC's activity is RNase L-dependent. To validate mode of action, RNase L was knocked down in SH-SY5Y cells with a pool of siRNAs (FIG. 5C), followed by treatment with Syn-RiboTAC. […] Syn-RiboTAC and Synucleozid-2.0 were validated to engage the same binding site in cells by a competition experiment using a constant concentration of Syn-RiboTAC(2 μM) and varying concentrations of Synucleozid-2.0 (0.1-10 μM).
as §1

[3] = of 447 detectable IRE-containing mRNAs

Row | SMILES | number of genes downregulated (SH-SY5Y cells; 2 μM, of 30,175 genes detected) | number of genes upregulated (SH-SY5Y cells; 2 μM, of 30,175 genes detected) | percent of genes affected (SH-SY5Y cells; 2 μM, of 30,175 genes detected) | number of genes affected (SH-SY5Y cells; 2 μM, of 30,175 genes detected, log 2fold change >0.58, p<0.05) | inhibition at 2 µM (SH-SY5Y cells; SH-SY5Y, RNA-seq, read-out: reduction of BLVRB transcript level) | inhibition at 2 µM (SH-SY5Y cells; SH-SY5Y, RNA-seq, read-out: reduction of SNCA transcript abundance by RNA-seq) | APP, ferritin, and TfR transcript levels in the RNA-seq data (SH-SY5Y cells; RNA-seq, SH-SY5Y) | number of bound transcripts whose levels were reduced (cleaved) (SH-SY5Y cells; of 38 Chem-CLIP-bound transcripts detected in RNA-seq, including SNCA) | number of IRE-containing mRNAs affected (SH-SY5Y cells; [3]) | number of IRE-containing mRNAs downregulated (SH-SY5Y cells; [3]) | number of IRE-containing mRNAs upregulated (SH-SY5Y cells; [3]) | effect of scrambled control siRNA on Syn-RiboTAC activity (SNCA mRNA [1]; scrambled control siRNA) | effect on SNCA mRNA after RNase L knock-down (SNCA mRNA [1]; siRNA pool against RNase L) | effect on TfR mRNA level (TfR mRNA) | effect on ferritin protein level (ferritin) | SNCA mRNA levels in competition experiment (SNCA mRNA [2])
1 | CCOC(=O)C1=C(Nc2ccccc2)S/C(=C\c2ccc(OCCOCCOCCOCCNC(=O)CCCOc3ccc(-n4c(SCC(=O)Nc5ccc6cn[nH]c6c5)nnc4-c4ccncc4)cc3)c(O)c2)C1=O [Syn-RiboTAC] | 34 | 14 | 0.16% | 48 | ~20% | ~35% | unaffected | four | 19 | 11 | 8 | No significant effect on activity | ablated the effect of Syn-RiboTAC on SNCA mRNA | None of the three transcripts was affected | no effect | –
2 | O=C(CSc1nnc(-c2ccncc2)n1-c1ccc(Br)cc1)Nc1ccc2cn[nH]c2c1 [Synucleozid-2.0] | – | – | – | – | – | – | – | – | – | – | – | – | – | – | – | dose-dependent restoration of SNCA mRNA levels
